Drawing on ChEMBL document CHEMBL1139650, “In silico fragment-based discovery of DPP-IV S1 pocket binders” (Bioorg Med Chem Lett, 2006), this text covers IC50 for two molecules.

The structures appear in SMILES notation.

This test has as its target Dipeptidyl peptidase 4 (Homo sapiens, UniProt P27487). In words: Inhibition of DPP4.

Sequence of Dipeptidyl peptidase 4 (P27487 whole entry): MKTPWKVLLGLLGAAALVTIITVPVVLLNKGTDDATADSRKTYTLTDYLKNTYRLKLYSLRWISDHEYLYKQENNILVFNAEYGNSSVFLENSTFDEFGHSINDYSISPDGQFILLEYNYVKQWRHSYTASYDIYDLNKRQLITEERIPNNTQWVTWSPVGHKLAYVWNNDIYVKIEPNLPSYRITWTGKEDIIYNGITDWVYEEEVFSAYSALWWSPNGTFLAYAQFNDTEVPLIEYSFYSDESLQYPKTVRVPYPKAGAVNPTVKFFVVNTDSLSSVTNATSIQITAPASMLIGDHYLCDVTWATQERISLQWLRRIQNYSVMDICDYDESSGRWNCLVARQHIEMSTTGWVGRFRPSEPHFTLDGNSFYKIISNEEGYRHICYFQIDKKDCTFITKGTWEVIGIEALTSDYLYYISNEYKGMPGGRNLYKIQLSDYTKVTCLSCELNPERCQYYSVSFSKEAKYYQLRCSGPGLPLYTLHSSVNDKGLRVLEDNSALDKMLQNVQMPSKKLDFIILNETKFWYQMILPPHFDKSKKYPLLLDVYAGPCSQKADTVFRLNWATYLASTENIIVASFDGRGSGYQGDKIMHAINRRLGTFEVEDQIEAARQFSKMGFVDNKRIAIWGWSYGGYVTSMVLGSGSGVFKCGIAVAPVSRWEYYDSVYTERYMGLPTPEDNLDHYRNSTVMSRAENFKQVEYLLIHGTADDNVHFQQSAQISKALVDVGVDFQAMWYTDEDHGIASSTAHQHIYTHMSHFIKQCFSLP

`N[C@H](c1ccccc1)[C@@H](N)c1ccccc1` registered an IC50 of 75 µM. Under `N[C@H](c1ccccc1)[C@H](N)c1ccccc1` stands 45 µM.
